The subject of assay [1] is Propionibacterium acnes ATCC 6919. Briefly: MIC by broth microdilution. It is filed as cell-based. The conditions noted are these: Wilkins-Chalgren broth, 10^5 CFU/ml, 48 h, N2:CO2:H2 (80:10:10).
For assay [2], the system named is Staphylococcus aureus L165. Conditions: Iso-Sensitest broth, 10^4 CFU/ml, 20-24 h, 37° C.
Assay [3] concerns Staphylococcus aureus Smith. The conditions noted are these: Iso-Sensitest broth, 10^4 CFU/ml, 20-24 h, 37° C.
The subject of assay [4] is Staphylococcus epidermidis ATCC 12228. The conditions noted are these: Iso-Sensitest broth, 10^4 CFU/ml, 20-24 h, 37° C.
Assay [5] relates to Staphylococcus haemolyticus L602. The conditions noted are these: Iso-Sensitest broth, 10^4 CFU/ml, 20-24 h, 37° C.
Assay [6] relates to Enterococcus faecalis ATCC 7080. Conditions: Iso-Sensitest broth, 10^4 CFU/ml, 20-24 h, 37° C.
Assay [7] concerns Clostridium perfringens L290. The conditions noted are these: Wilkins-Chalgren broth, 10^5 CFU/ml, 48 h, N2:CO2:H2 (80:10:10).

The values that follow come from patent US5618724A, “Antibiotics GE 37468 A, B and C” (Gruppo Lepetit SpA, priority 1996, dated 1997).

For the molecule `C=C(NC(=O)c1csc(-c2ccc3c(n2)-c2csc(n2)-c2csc(n2)C2C(C)CC(O)N2C(=O)C(Cc2ccc(O)cc2)NC(=O)C2CSC(=N2)C(Cc2ccccc2)NC(=O)c2csc(n2)C(CC(N)=O)NC(=O)c2nc-3oc2C)n1)C(N)=O` (centres unmarked) [GE37468C], the M.I.C. was 0.616 microgram/ml in assay [1]; 0.03 microgram/ml in assay [2]; 0.03 microgram/ml in assay [3]; 0.25 microgram/ml in assay [4]; 0.13 microgram/ml in assay [5]; 0.03 microgram/ml in assay [6]. The M.I.C. in assay [7] turned out to be 0.016 microgram/ml.

As to `Cc1oc2nc1C(=O)NC(CC(N)=O)c1nc(cs1)C(=O)NC(Cc1ccccc1)C1=NC(CS1)C(=O)NC(Cc1ccc(O)cc1)C(=O)N1C(O)CC(C)C1c1nc(cs1)-c1nc(cs1)-c1nc(-c3nc(C(N)=O)cs3)ccc1-2` (centres unmarked) [GE37468B], the M.I.C. in assay [1] is given as 0.016 microgram/ml; in assay [2], 0.03 microgram/ml; in assay [3], 0.03 microgram/ml; in assay [4], 0.06 microgram/ml; in assay [5] it was 0.13 microgram/ml; in assay [6], 0.03 microgram/ml. In addition, the M.I.C. in assay [7] came to 0.016 microgram/ml.
